Reference: patent publication US20180148514A1, “MULTIVALENT MEDITOPES, MEDITOPE-BINDING ANTIBODIES AND USES THEREOF” (City of Hope, priority 2014, published 2018)

Columns and labels:
[1] = tested on: CLL patients; conditions: cited from earlier work
[2] = target: pertuzumab I83E IgG; assay: SPR, meditope binding to immobilized pertuzumab I83E IgG; conditions: two fold dilutions from approximately 10 um to 156 nM
Method: The binding of a meditope to a meditope-enabled antibody containing the I83E modification was next examined in an in vitro binding study using surface plasmon resonance (SPR) and a meditope enabled antibody pertuzumab with the I83E modification. […] Concentrations were two fold dilutions from approximately 10 um to 156 nM. […] Further optimization of the experiment will be required due to the long off rate observed.

[3] = tested on: MDA-MB-468 cells; assay: FACS binding of meditopes to MDA-MB-468 cells pre-treated with cetuximab or M425; type: cell-based; conditions: with or without cetuximab or M425 pre-treatment
[4] = Phase I, 46 heavily pretreated CLL patients, single agent

Row | Substance | objective responses [1, 4] | patients with decreased peripheral blood lymphocyte counts [1, 4] | patients with reduced enlarged lymph node size [1, 4] | MTD (maximum tolerated dose) ([1]; human, in vivo) | immunosuppression ([1]; human, in vivo) | adverse events (AEs) ([1]; majority of AEs) | Kd fit [2] | binding to cells (FACS) [3]
1 | lumiliximab: primatized anti-CD23 mAb with cynomolgus macaque variable regions and human constant regions (IgG1-κ) | no objective Complete Responses (CRs) or Partial Responses (PRs) were observed | 91% | 52% | not reached | not immunosuppressive | limited to grade 1/2 |  | 
2 | C-QFDLSTRRLK-C [cQFD] |  |  |  |  |  |  | no Kd could be fit to the data | bound to EGFR positive MD-MBA-468 cells only in the presence of cetuximab
